In ChEMBL document CHEMBL3507680, “University of Dundee, Gates Library screen for HepG2 cell viability” one finds cytotoxicity data, which are given here for 40 compounds.

A short description of this data set: Human HepG2 cell viability assay in 384 well format. It is filed as toxicity, cell-based. Also on record: dose 125 nL, time 70.5 hour; cytotoxicity at 70.5 h: concentration not given beside the values. As to conditions: HepG2 cells, read-out: Inhibition.
`CN(Cc1nncn1-c1cccc(C(F)(F)F)c1)S(C)(=O)=O`: the cytotoxicity at 70.5 h stood at 7.25%.

Consider `CC(=O)NCCCC(=O)N1CCC(Sc2cccc(C)c2)CC1`, for which the cytotoxicity at 70.5 h was -12.1%.

With `O=S1(=O)C[C@@H]2[C@H](C1)N(Cc1ccc3ccccc3c1)CCN2CC1CC1`, the cytotoxicity at 70.5 h turned out to be 2.29%.

`Cc1nc(NCCC23CCCN2CCC3)cc(C2CCCNC2)n1` (stereo not given): the cytotoxicity at 70.5 h was -3.41%.

Regarding `CC(=O)N(C)c1nc(CN2CCCC2Cn2cncn2)cs1` (stereo not given), the cytotoxicity at 70.5 h was -2.86%.

As for `CCc1nccn1C1CCCN(C(=O)c2ccc3nnc(C)n3c2)C1` (stereo not given), the cytotoxicity at 70.5 h is -2.12%.

Take `CN1CCN(C2CCN(Cc3nc(-c4ccoc4)no3)CC2)C1=O`: the cytotoxicity at 70.5 h was -6.16%.

As to `Cc1ccc(CC(=O)Nc2cc(C(C)C)n[nH]2)cn1`, the cytotoxicity at 70.5 h came out at 24.6%.

As for `COc1ccc(-c2noc(CN3CC(n4cc(C)cn4)C3)n2)cc1`, the cytotoxicity at 70.5 h is -11.2%.

Regarding `O=C1NCCN1C1CCN(Cc2nc(-c3ccsc3)no2)CC1`, the cytotoxicity at 70.5 h is 32.4%.

Regarding `CC(C)C(Sc1nccn1C1CC1)C(=O)NCc1cccnc1` (stereo not given), the cytotoxicity at 70.5 h stood at 16%.

On to `Cc1ccc(C(C)NC(=O)CNCCn2cccn2)cc1C` (stereo not given), for which the cytotoxicity at 70.5 h is -10.7%.

Consider `CCCc1nc(CN2CCCCC2Cn2cncn2)cs1` (stereo not given), for which the cytotoxicity at 70.5 h is -7.91%.

As for `CC(C)C(Sc1nncn1C1CC1)C(=O)NCc1cccnc1` (stereo not given), the cytotoxicity at 70.5 h was -2.46%.

`CCc1nccn1C1CCCN(C(=O)c2ccc3c(c2)OCCO3)C1` (stereo not given): the cytotoxicity at 70.5 h is -9.17%.

For `CCc1nccn1C1CCCN(C(=O)c2ccc(OC)c(OC)c2)C1` (stereo not given), the cytotoxicity at 70.5 h was determined as 9.92%.

For `Cc1cc(C(=O)N2CCCC(C)C2)ccc1NCc1nc(C2CC2)no1` (stereo not given), the cytotoxicity at 70.5 h is -13.1%.

On to `Cc1nc(C)n(CC2CCCN2Cc2ncc(-c3ccccc3)o2)n1` (stereo not given), for which the cytotoxicity at 70.5 h was -2.3%.

For the compound `CC(C)c1nc(CN(C)C2CCCN(c3cccnn3)C2)no1` (stereo not given), the cytotoxicity at 70.5 h was -5.62%.

As to `CCOCCN1CCN(Cc2coc(-c3cccc(F)c3)n2)CC1`, the cytotoxicity at 70.5 h was -1.54%.

`Cc1nn(C)c(N(C)C)c1CNCC(O)c1ccccc1F` (stereo not given): the cytotoxicity at 70.5 h is -15.4%.

Take `O=C(NCC1CCOC1)c1csc(-c2ccccc2)n1` (stereo not given): the cytotoxicity at 70.5 h is -15.4%.

Turning to `Cc1cc(CNC(=O)CCc2c(C)nc3cc(O)nn3c2C)no1`, the cytotoxicity at 70.5 h was -6.68%.

With `Cc1nc2cc(O)nn2c(C)c1CCC(=O)NCCc1nccn1C`, the cytotoxicity at 70.5 h is -10.9%.

On to `CC(C)Cc1cc(NC(=O)c2ccccc2F)n(C)n1`, for which the cytotoxicity at 70.5 h is -9.5%.

Consider `CCOc1ccc(Cl)c(C(=O)N2CCCN(CC(N)=O)CC2)n1`, for which the cytotoxicity at 70.5 h was -12%.

For `Cc1cnn(C2CCCN(C(=O)c3ccc4c(c3)CCC4)C2)c1` (stereo not given), the cytotoxicity at 70.5 h is -6.05%.

`Cc1cnn(C2CCCN(C(=O)c3ccc(O)nc3)C2)c1` (stereo not given): the cytotoxicity at 70.5 h is -12.4%.

Take `COC(=O)c1cccn1C1CCN(C(=O)c2ccc(C)[nH]c2=O)CC1`: the cytotoxicity at 70.5 h was -5.32%.

Consider `COC(=O)c1cccn1C1CCN(C(=O)c2cc(F)ccc2C)CC1`, for which the cytotoxicity at 70.5 h was -16.9%.

Consider `CCOc1ccc(Cl)c(C(=O)N2CCN(CC(O)CC)CC2)n1` (stereo not given), for which the cytotoxicity at 70.5 h is -14%.

In the case of `O=C(c1ccc2[nH]c(=O)[nH]c2c1)N1CCC(Nc2cccnn2)CC1`, the cytotoxicity at 70.5 h is -9.22%.

For `Cn1nnc2cc(C(=O)N3CCC(Nc4cccnn4)CC3)ccc21`, the cytotoxicity at 70.5 h is -15.7%.

For `O=C(c1ccc(-n2cnnc2)cc1)N1CCC(Nc2cccnn2)CC1`, the cytotoxicity at 70.5 h was -15.6%.

`CNC(=O)c1ccc(C(=O)N2CCCC(n3nc(C)cc3C)C2)cn1` (stereo not given): the cytotoxicity at 70.5 h is -12.8%.

As to `Cc1oc(C(=O)O)cc1S(=O)(=O)Nc1cccc(Cl)c1F`, the cytotoxicity at 70.5 h is -7.29%.

On to `CCOc1ccc(Cl)c(C(=O)N2CCCSCC2)n1`, for which the cytotoxicity at 70.5 h is -10.6%.

On to `COCCN1CCC(NCc2ccc(F)cc2F)C1` (stereo not given), for which the cytotoxicity at 70.5 h amounted to 5.5%.

In the case of `COCCN1CCC(NCc2cccc(C)c2)C1` (stereo not given), the cytotoxicity at 70.5 h was -12.6%.

With `COc1c(C)cnc(CN2CCC(N(C)C(=O)C3CC3)CC2)c1C`, the cytotoxicity at 70.5 h is -10.5%.
